BigSolDB 2.1

O.O=C([O-])[C@H](O)[C@@H](O)[C@H](O)[C@H](O)CO.O=C([O-])[C@H](O)[C@@H](O)[C@H](O)[C@H](O)CO.[Ca+2]
solubility (mole fraction)
Conditions | in acetonitrile | in ethanol | in methanol | in n-propanol | in water
279.15 K | 4.28e-06 | 9.52e-06 | 1.15e-05 | 5.01e-06 | –
279.65 K | – | – | – | – | 0.000997
283.15 K | 4.56e-06 | 1.06e-05 | 1.26e-05 | 5.83e-06 | –
284.65 K | – | – | – | – | 0.00108
288.15 K | 5.33e-06 | 1.29e-05 | 1.46e-05 | 7.78e-06 | –
289.15 K | – | – | – | – | 0.0012
293.15 K | 7.75e-06 | 1.51e-05 | 1.77e-05 | 1.04e-05 | –
294.15 K | – | – | – | – | 0.00129
298.15 K | 1.02e-05 | 1.73e-05 | 1.95e-05 | 1.33e-05 | –
299.15 K | – | – | – | – | 0.00146
303.15 K | 1.24e-05 | 1.99e-05 | 2.34e-05 | 1.62e-05 | 0.00165
308.15 K | – | – | – | – | 0.00199
308.65 K | 1.64e-05 | 2.32e-05 | 2.65e-05 | – | –
313.15 K | – | – | – | – | 0.00227
313.65 K | 1.99e-05 | 2.75e-05 | 2.99e-05 | – | –
318.15 K | 2.39e-05 | 3.04e-05 | 3.5e-05 | – | 0.00269
323.15 K | – | – | – | – | 0.00311
